# According to patent publication US20160060260A1, “BROMODOMAIN INHIBITORS FOR TREATING DISEASE” (Board of Regents, The University of Texas System, priority 2014, published 2016):
# pIC50: −log10 of the molar value.
# Target: T1, Recombinant human His-tagged Trim24-PHD-bromodomain (Homo sapiens, UniProt O15164)
# T1 construct: Recombinant human His-tagged Trim24-PHD-bromodomain (produced in-house); made in house
# T1 sequence (O15164 824-1006 limits assumed): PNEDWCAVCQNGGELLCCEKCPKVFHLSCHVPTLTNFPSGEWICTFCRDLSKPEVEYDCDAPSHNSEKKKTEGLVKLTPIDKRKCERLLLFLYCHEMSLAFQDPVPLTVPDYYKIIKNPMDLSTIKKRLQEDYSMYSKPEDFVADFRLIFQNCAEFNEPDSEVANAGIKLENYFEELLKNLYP
# Assay: Trim24 AlphaScreen Assay
# Assay type: binding
# Conditions: 5 nM Trim24 protein, 15 nM biotinylated H3K23ac (1-33aa) peptide
# Experimental: Recombinant human His-tagged Trim24-PHD-bromodomain (produced in-house), biotinylated H3K23ac (1-33aa) peptide (AnaSpec, Inc.), and test compound were added to a 384-well OptiPlate (Perkin Elmer) and incubated at room temperature for one hour. The assay buffer consisted of 50 mM Hepes, pH 7.5, 100 mM NaCl, and 0.12 mM Triton X-100.
# Streptavidin donor beads and nickel chelate acceptor beads, both from a Perkin Elmer AlphaScreen Histidine Detection Kit, were then added to the Optiplate to a final concentration of 10 ug/mL each. Following a 2 hour incubation at room temperature, the microplate was read on an Envision Plate Reader (Perkin Elmer). Percent of control (POC) values were calculated from the following formula:
# POC=[sample signal-average background signal]/[average maximum signal−average background signal]*100
# The average maximum signal was obtained from wells containing all assay components except test compound. The average background signal pertained to wells with all assay components except Trim24 and test compound. IC50 values were calculated using a four-parameter logistic curve fit.
row,SMILES,pIC50
1,"Cc1ncc(S(=O)(=O)Nc2cc3c(cc2Oc2cccc(OCc4ccccc4)c2)n(C)c(=O)n3C)s1 [Example 47, N-(6-(3-(benzyloxy)phenoxy)-1,3-dimethyl-2-oxo-2,3-dihydro-1H-benzo[d]imidazol-5-yl)-2-methylthiazole-5-sulfonamide]",6.00 to 7.00
2,"Cc1n[nH]cc1S(=O)(=O)Nc1cc2c(cc1Oc1cccc(OCc3ccccc3)c1)n(C)c(=O)n2C [Example 48, N-(6-(3-(benzyloxy)phenoxy)-1,3-dimethyl-2-oxo-2,3-dihydro-1H-benzo[d]imidazol-5-yl)-3-methyl-1H-pyrazole-4-sulfonamide]",6.00 to 7.00
3,"Cc1nc(S(=O)(=O)Nc2cc3c(cc2Oc2cccc(OCc4ccccc4)c2)n(C)c(=O)n3C)c[nH]1 [Example 49, N-(6-(3-(benzyloxy)phenoxy)-1,3-dimethyl-2-oxo-2,3-dihydro-1H-benzo[d]imidazol-5-yl)-2-methyl-1H-imidazole-4-sulfonamide]",6.00 to 7.00
4,"CCn1cnc(S(=O)(=O)Nc2cc3c(cc2Oc2cccc(OCc4ccccc4)c2)n(C)c(=O)n3C)c1 [Example 50, N-(6-(3-(benzyloxy)phenoxy)-1,3-dimethyl-2-oxo-2,3-dihydro-1H-benzo[d]imidazol-5-yl)-1-ethyl-1H-imidazole-4-sulfonamide]",6.00 to 7.00
5,"Cn1c(=O)n(C)c2cc(Oc3cccc(OCc4ccccc4)c3)c(NS(=O)(=O)c3cn[nH]c3)cc21 [Example 51, N-(6-(3-(benzyloxy)phenoxy)-1,3-dimethyl-2-oxo-2,3-dihydro-1H-benzo[d]imidazol-5-yl)-1H-pyrazole-4-sulfonamide]",6.00 to 7.00
6,"COc1ccccc1S(=O)(=O)Nc1cc2c(cc1Oc1cccc(OCc3ccccc3)c1)n(C)c(=O)n2C [Example 52, N-(6-(3-(benzyloxy)phenoxy)-1,3-dimethyl-2-oxo-2,3-dihydro-1H-benzo[d]imidazol-5-yl)-2-methoxybenzenesulfonamide]",6.00 to 7.00
7,"CCCCOc1cccc(Oc2cc3c(cc2NS(=O)(=O)c2cn(C)c(C)n2)n(C)c(=O)n3C)c1 [Example 57, N-(6-(3-butoxyphenoxy)-1,3-dimethyl-2-oxo-2,3-dihydro-1H-benzo[d]imidazol-5-yl)-1,2-dimethyl-1H-imidazole-4-sulfonamide]",6.00 to 7.00
8,"CC(C)COc1cccc(Oc2cc3c(cc2NS(=O)(=O)C2CC2)n(C)c(=O)n3C)c1 [Example 59, N-(6-(3-isobutoxyphenoxy)-1,3-dimethyl-2-oxo-2,3-dihydro-1H-benzo[d]imidazol-5-yl)cyclopropanesulfonamide]",6.00 to 7.00
9,"CC(C)COc1cccc(Oc2cc3c(cc2NS(=O)(=O)c2cnn(C)c2)n(C)c(=O)n3C)c1 [Example 60, N-(6-(3-isobutoxyphenoxy)-1,3-dimethyl-2-oxo-2,3-dihydro-1H-benzo[d]imidazol-5-yl)-1-methyl-1H-pyrazole-4-sulfonamide]",7.00 to 8.00
10,"CCC(C)COc1cccc(Oc2cc3c(cc2NS(=O)(=O)c2cn(C)c(C)n2)n(C)c(=O)n3C)c1 (stereo not shown) [Example 62, N-(1,3-dimethyl-6-(3-(2-methylbutoxy)phenoxy)-2-oxo-2,3-dihydro-1H-benzo[d]imidazol-5-yl)-1,2-dimethyl-1H-imidazole-4-sulfonamide]",6.00 to 7.00
11,"Cn1cnc(S(=O)(=O)Nc2cc3c(cc2Oc2cccc(OCC4CCOC4)c2)n(C)c(=O)n3C)c1 (stereo not shown) [Example 64, N-(1,3-dimethyl-2-oxo-6-(3-((tetrahydrofuran-3-yl)methoxy)phenoxy)-2,3-dihydro-1H-benzo[d]imidazol-5-yl)-1-methyl-1H-imidazole-4-sulfonamide]",6.00 to 7.00
12,"Cn1cnc(S(=O)(=O)Nc2cc3c(cc2Oc2cccc(OCC4CCOCC4)c2)n(C)c(=O)n3C)c1 [Example 65, N-(1,3-dimethyl-2-oxo-6-(3-((tetrahydro-2H-pyran-4-yl)methoxy)phenoxy)-2,3-dihydro-1H-benzo[d]imidazol-5-yl)-1-methyl-1H-imidazole-4-sulfonamide]",6.00 to 7.00
13,"COc1cc(OCC(C)C)cc(Oc2cc3c(cc2NS(=O)(=O)c2cn(C)c(C)n2)n(C)c(=O)n3C)c1 [Example 66, N-(6-(3-isobutoxy-5-methoxyphenoxy)-1,3-dimethyl-2-oxo-2,3-dihydro-1H-benzo[d]imidazol-5-yl)-1,2-dimethyl-1H-imidazole-4-sulfonamide]",7.00 to 8.00
14,"COc1cc(OCC(C)C)cc(Oc2cc3c(cc2NS(=O)(=O)C2CC2)n(C)c(=O)n3C)c1 [Example 69, N-(6-(3-isobutoxy-5-methoxyphenoxy)-1,3-dimethyl-2-oxo-2,3-dihydro-1H-benzo[d]imidazol-5-yl)cyclopropanesulfonamide]",7.00 to 8.00
15,"Cn1cnc(S(=O)(=O)Nc2cc3c(cc2Oc2cccc(OCC(F)(F)F)c2)n(C)c(=O)n3C)c1 [Example 71, N-(1,3-dimethyl-2-oxo-6-(3-(2,2,2-trifluoroethoxy)phenoxy)-2,3-dihydro-1H-benzo[d]imidazol-5-yl)-1-methyl-1H-imidazole-4-sulfonamide]",7.00 to 8.00
16,"Cn1cc(S(=O)(=O)Nc2cc3c(cc2Oc2cccc(OCC(F)(F)F)c2)n(C)c(=O)n3C)cn1 [Example 72, N-(1,3-dimethyl-2-oxo-6-(3-(2,2,2-trifluoroethoxy)phenoxy)-2,3-dihydro-1H-benzo[d]imidazol-5-yl)-1-methyl-1H-pyrazole-4-sulfonamide]",7.00 to 8.00
17,"Cn1cc(S(=O)(=O)Nc2cc3c(cc2Oc2cccc(OC(F)(F)F)c2)n(C)c(=O)n3C)cn1 [Example 73, N-(1,3-dimethyl-2-oxo-6-(3-(trifluoromethoxy)phenoxy)-2,3-dihydro-1H-benzo[d]imidazol-5-yl)-1-methyl-1H-pyrazole-4-sulfonamide]",< 6.00
18,"C=CCOc1cccc(Oc2cc3c(cc2NS(=O)(=O)c2cn(C)cn2)n(C)c(=O)n3C)c1 [Example 74, N-(6-(3-(allyloxy)phenoxy)-1,3-dimethyl-2-oxo-2,3-dihydro-1H-benzo[d]imidazol-5-yl)-1-methyl-1H-imidazole-4-sulfonamide]",6.00 to 7.00

# More lines, now with the values ahead:
row,pIC50,SMILES
1,6.00 to 7.00,"COCCOc1cccc(Oc2cc3c(cc2NS(=O)(=O)c2cn(C)c(C)n2)n(C)c(=O)n3C)c1 [Example 53, N-(6-(3-(2-methoxyethoxy)phenoxy)-1,3-dimethyl-2-oxo-2,3-dihydro-1H-benzo[d]imidazol-5-yl)-1,2-dimethyl-1H-imidazole-4-sulfonamide]"
2,6.00 to 7.00,"Cc1nc(S(=O)(=O)Nc2cc3c(cc2Oc2cccc(OC(C)C)c2)n(C)c(=O)n3C)cn1C [Example 54, N-(6-(3-isopropoxyphenoxy)-1,3-dimethyl-2-oxo-2,3-dihydro-1H-benzo[d]imidazol-5-yl)-1,2-dimethyl-1H-imidazole-4-sulfonamide]"
3,6.00 to 7.00,"Cc1nc(S(=O)(=O)Nc2cc3c(cc2Oc2cccc(OCCCO)c2)n(C)c(=O)n3C)cn1C [Example 55, N-(6-(3-(3-hydroxypropoxy)phenoxy)-1,3-dimethyl-2-oxo-2,3-dihydro-1H-benzo[d]imidazol-5-yl)-1,2-dimethyl-1H-imidazole-4-sulfonamide]"
4,< 6.00,"Cc1nc(S(=O)(=O)Nc2cc3c(cc2Oc2cccc(OCC(=O)N(C)C)c2)n(C)c(=O)n3C)cn1C [Example 56, 2-(3-((6-((1,2-dimethyl-1H-imidazole)-4-sulfonamido)-1,3-dimethyl-2-oxo-2,3-dihydro-1H-benzo[d]imidazol-5-yl)oxy)phenoxy)-N,N-dimethylacetamide]"
5,7.00 to 8.00,"Cc1nc(S(=O)(=O)Nc2cc3c(cc2Oc2cccc(OCC4CC4)c2)n(C)c(=O)n3C)cn1C [Example 58, N-(6-(3-(cyclopropylmethoxy)phenoxy)-1,3-dimethyl-2-oxo-2,3-dihydro-1H-benzo[d]imidazol-5-yl)-1,2-dimethyl-1H-imidazole-4-sulfonamide]"
6,7.00 to 8.00,"CCCOc1cccc(Oc2cc3c(cc2NS(=O)(=O)c2cn(C)c(C)n2)n(C)c(=O)n3C)c1 [Example 61, N-(1,3-dimethyl-2-oxo-6-(3-propoxyphenoxy)-2,3-dihydro-1H-benzo[d]imidazol-5-yl)-1,2-dimethyl-1H-imidazole-4-sulfonamide]"
7,6.00 to 7.00,"COc1cccc(Oc2cc3c(cc2NS(=O)(=O)c2cn(C)cn2)n(C)c(=O)n3C)c1 [Example 63, N-(6-(3-methoxyphenoxy)-1,3-dimethyl-2-oxo-2,3-dihydro-1H-benzo[d]imidazol-5-yl)-1-methyl-1H-imidazole-4-sulfonamide]"
8,7.00 to 8.00,"Cc1nc(S(=O)(=O)Nc2cc3c(cc2Oc2cccc(OCC(F)(F)F)c2)n(C)c(=O)n3C)cn1C [Example 67, N-(1,3-dimethyl-2-oxo-6-(3-(2,2,2-trifluoroethoxy)phenoxy)-2,3-dihydro-1H-benzo[d]imidazol-5-yl)-1,2-dimethyl-1H-imidazole-4-sulfonamide]"
9,6.00 to 7.00,"COCCCOc1cccc(Oc2cc3c(cc2NS(=O)(=O)c2cn(C)cn2)n(C)c(=O)n3C)c1 [Example 68, N-(6-(3-(3-methoxypropoxy)phenoxy)-1,3-dimethyl-2-oxo-2,3-dihydro-1H-benzo[d]imidazol-5-yl)-1-methyl-1H-imidazole-4-sulfonamide]"
10,7.00 to 8.00,"C=C(C)COc1cccc(Oc2cc3c(cc2NS(=O)(=O)c2cn(C)cn2)n(C)c(=O)n3C)c1 [Example 70, N-(1,3-dimethyl-6-(3-((2-methylallyl)oxy)phenoxy)-2-oxo-2,3-dihydro-H-benzo[d]imidazol-5-yl)-1-methyl-1H-imidazole-4-sulfonamide]"
